Laboratory results: US20250230193A1, “CYCLIC COMPOUND HAVING SELECTIVE KRAS INHIBITORY EFFECT ON HRAS AND NRAS” (CHUGAI SEIYAKU KABUSHIKI KAISHA, priority 2022, published 2025)

How the values were obtained:
[1] = molecular target: GDP-bound NRAS wild-type protein (Homo sapiens, UniProt P01111); assay: Binding to NRAS by surface plasmon resonance (SPR), Single Cycle Kinetics
[2] = molecular target: GDP-bound HRAS wild-type protein (Homo sapiens, UniProt P01112); assay: Binding to HRAS by surface plasmon resonance (SPR), Single Cycle Kinetics
[3] = SPR, GDP-bound NRAS wild-type vs GDP-bound KRAS wild-type
[4] = SPR, GDP-bound HRAS wild-type vs GDP-bound KRAS wild-type
[5] = KD ratio, GDP-bound NRAS wild-type vs GDP-bound KRAS wild-type, SPR
[6] = KD ratio, GDP-bound HRAS wild-type vs GDP-bound KRAS wild-type, SPR

GDP-bound HRAS wild-type protein, sequence (P01112 whole entry): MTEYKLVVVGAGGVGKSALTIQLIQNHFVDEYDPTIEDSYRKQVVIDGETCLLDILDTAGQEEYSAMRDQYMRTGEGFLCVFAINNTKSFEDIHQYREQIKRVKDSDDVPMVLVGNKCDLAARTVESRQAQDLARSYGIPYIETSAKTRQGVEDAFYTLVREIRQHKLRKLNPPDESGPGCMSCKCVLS
GDP-bound NRAS wild-type protein, sequence (P01111 whole entry): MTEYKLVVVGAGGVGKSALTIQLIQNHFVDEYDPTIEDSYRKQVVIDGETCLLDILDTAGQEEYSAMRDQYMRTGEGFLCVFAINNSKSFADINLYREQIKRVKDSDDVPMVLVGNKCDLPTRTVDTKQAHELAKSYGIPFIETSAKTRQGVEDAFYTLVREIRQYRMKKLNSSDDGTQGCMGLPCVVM

With `CCO[C@@H]1C[C@H]2C(=O)NC3(CCC3)C(=O)N(C)[C@@H](C3CCCC3)C(=O)N(C)[C@H](C(=O)N(C)C)CC(=O)N(C)[C@@H](CC3CCCC3)C(=O)N[C@@H]([C@@H](C)CC)C(=O)N(C)CC(=O)N(C)[C@H]3C/C=C\CCN(C3=O)[C@@H](Cc3ccc(C)cc3)C(=O)N(C)CC(=O)N[C@@H](CCc3ccc(C(F)(F)F)c(CC)c3)C(=O)N2C1` [PP2672] the “NRAS/KRAS (ratio of KD value with respect to GDP-bound NRAS wild-type protein to KD value with respect to KRAS)” value ([1]; class symbols) was “B (a compound having 3 or more and less than 10 is denoted as B)” and the “HRAS/KRAS (ratio of KD value with respect to GDP-bound HRAS wild-type protein to KD value with respect to KRAS)” value ([2]; class symbols) was “B (a compound having 3 or more and less than 10 is denoted as B)”.

With `CCC(CC)[C@H]1C(=O)N(C)[C@H](C(=O)N(C)C)CC(=O)N(C)[C@@H](COC)C(=O)N[C@@H]([C@@H](C)CC)C(=O)N(C)CC(=O)N(C)[C@H]2C/C=C\CCN(C2=O)[C@@H](Cc2ccc(C(F)(F)F)cc2)C(=O)N(C)CC(=O)N[C@@H](CCc2ccc(Cl)c(Cl)c2)C(=O)N2C[C@H](OC3CCC3)C[C@H]2C(=O)NC2(CC(C)(C)C2)C(=O)N1C` [PP2642] the “NRAS/KRAS (ratio of KD value with respect to GDP-bound NRAS wild-type protein to KD value with respect to KRAS)” value ([1]; class symbols) was “AA (a compound having 20 or more is denoted as AA)” and the “HRAS/KRAS (ratio of KD value with respect to GDP-bound HRAS wild-type protein to KD value with respect to KRAS)” value ([2]; class symbols) was “A (a compound having 10 or more and less than 20 is denoted as A)”.

`CCO[C@@H]1C[C@H]2C(=O)NC3(CCC3)C(=O)N(C)[C@@H](C3CCCC3)C(=O)N(CCc3ccccc3)[C@H](C(=O)N3CCOCC3)CC(=O)N(C)[C@@H](CC(C)C)C(=O)N[C@@H]([C@@H](C)CC)C(=O)N(C)CC(=O)N(C)[C@H]3CCCCCN(C3=O)[C@@H](Cc3ccc(C(F)(F)F)cc3)C(=O)N(C)CC(=O)N[C@@H](CCc3cc(F)c(C(F)(F)F)c(F)c3)C(=O)N2C1` [PP0642] was tested, and the “NRAS/KRAS (ratio of KD value with respect to GDP-bound NRAS wild-type protein to KD value with respect to KRAS)” value ([1]; SPR) was “B (a compound having 3 or more and less than 10 is denoted as B)” and the “HRAS/KRAS (ratio of KD value with respect to GDP-bound HRAS wild-type protein to KD value with respect to KRAS)” value ([2]; SPR) was “B (a compound having 3 or more and less than 10 is denoted as B)”.

With `CCO[C@@H]1C[C@H]2C(=O)NC3(CC(C)(C)C3)C(=O)N(C)[C@@H](C3CCCC3)C(=O)N(C)[C@H](C(=O)N(C)CC)CC(=O)N(C)[C@@H](COC)C(=O)N[C@@H]([C@@H](C)CC)C(=O)N(C)CC(=O)N(C)[C@H]3C/C=C\CCN(C3=O)[C@@H](Cc3ccc(C)cc3)C(=O)N(C)CC(=O)N[C@@H](CCc3cc(F)c(C(F)(F)F)c(F)c3)C(=O)N2C1` [PP2396] the “NRAS/KRAS (ratio of KD value with respect to NRAS to KD value with respect to KRAS)” value [1, 3] was “A (a compound having 10 or more and less than 20 is denoted as A)” and the “HRAS/KRAS (ratio of KD value with respect to HRAS to KD value with respect to KRAS)” value [2, 4] was “A (a compound having 10 or more and less than 20 is denoted as A)”.

For `CC[C@H](C)[C@@H]1NC(=O)[C@H](CC2CCC2)N(C)C(=O)C[C@@H](C(=O)N(C)C)N(C)C(=O)[C@H](C2CCCC2)N(C)C(=O)C2(CC(C)(C)C2)NC(=O)[C@@H]2CCCN2C(=O)[C@H](CCc2cc(F)c(C(F)(F)F)c(F)c2)NC(=O)CN(C)C(=O)[C@H](Cc2ccc(C(F)(F)F)cc2)N2CC/C=C\C[C@@H](C2=O)N(C)C(=O)CN(C)C1=O` [PP1728], the “NRAS/KRAS (ratio of KD value for NRAS to KD value for KRAS)” value [1, 5] was “A (a compound having 10 or more and less than 20 is denoted as A)” and the “HRAS/KRAS (ratio of KD value for HRAS to KD value for KRAS)” value [2, 6] was “A (a compound having 10 or more and less than 20 is denoted as A)”.

In the case of `CCO[C@@H]1C[C@H]2C(=O)NC3(CCC3)C(=O)N(C)[C@@H](C3CCCC3)C(=O)N(CC)[C@H](C(=O)N3CCOCC3)CC(=O)N(C)[C@@H](CC)C(=O)N[C@@H]([C@@H](C)CC)C(=O)N(C)CC(=O)N(C)[C@H]3CCCCCN(C3=O)[C@@H](Cc3ccc(C(F)(F)F)cc3)C(=O)N(C)CC(=O)N[C@@H](CCc3cc(F)c(C(F)(F)F)c(F)c3)C(=O)N2C1` [PP0944], the “NRAS/KRAS (ratio of KD value with respect to NRAS to KD value with respect to KRAS)” value [1, 5] is reported as “A (a compound having 10 or more and less than 20 is denoted as A)” and the “HRAS/KRAS (ratio of KD value with respect to HRAS to KD value with respect to KRAS)” value [2, 6] is reported as “A (a compound having 10 or more and less than 20 is denoted as A)”.

In the case of `CCC[C@H]1C(=O)N[C@@H](C2CCCC2)C(=O)N(C)CC(=O)N(C)[C@H]2C/C=C\CCN(C2=O)[C@@H](Cc2ccc(C)cc2)C(=O)N(C)CC(=O)N[C@@H](CCc2ccc(C(F)(F)F)c(Cl)c2)C(=O)N2C[C@H](OCC)C[C@H]2C(=O)NC2(CC(C)(C)C2)C(=O)N(C)[C@@H](CC(F)(F)F)C(=O)N(C)[C@H](C(=O)N(C)C)CC(=O)N1C` [PP2192], the “NRAS/KRAS (ratio of KD value with respect to NRAS to KD value with respect to KRAS)” value [1, 3] is reported as “A (a compound having 10 or more and less than 20 is denoted as A)” and the “HRAS/KRAS (ratio of KD value with respect to HRAS to KD value with respect to KRAS)” value [2, 4] is reported as “A (a compound having 10 or more and less than 20 is denoted as A)”.

For `CC[C@H](C)[C@@H]1NC(=O)[C@H](CC(C)C)N(C)C(=O)C[C@@H](C(=O)N2CCOCC2)N(C)C(=O)[C@H](C2CCCC2)N(C)C(=O)C2(CCCCC2)NC(=O)[C@@H]2CCCN2C(=O)[C@H](CCc2cc(F)c(C(F)(F)F)c(F)c2)NC(=O)CN(C)C(=O)[C@H](Cc2ccc(C(F)(F)F)cc2)N2CCCC[C@@H](C2=O)N(C)C(=O)CN(C)C1=O` [PP0561], the “NRAS/KRAS (ratio of KD value with respect to GDP-bound NRAS wild-type protein to KD value with respect to KRAS)” value ([1]; SPR) was “B (a compound having 3 or more and less than 10 is denoted as B)” and the “HRAS/KRAS (ratio of KD value with respect to GDP-bound HRAS wild-type protein to KD value with respect to KRAS)” value ([2]; SPR) was “B (a compound having 3 or more and less than 10 is denoted as B)”.
